Measurements published in patent US10765114B2, “4-amino-6-(pyridyl and 2-substitutedphenyl)-picolinates and 6-amino-2-(pyridyl and 2-substitutedphenyl)-pyrimidine-4-carboxylates and their use as herbicides” (Dow AgroSciences LLC, priority 2013, dated 2020).

system: Key Broadleaf Weed and Crop Species; assay: Post-Emergent Test II (Table 5); type: in vivo; conditions: Abutilon theophrasti, post-emergence, 336 h, ABUTH: velvetleaf (Abutilon theophrasti), application rate 70 (kg ai/ha; footnote: g ai/ha), read-out: Visual Growth Reduction (%) 14 Days After Application ABUTH
Method in brief: (§1)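 Visual injury ratings (0 = no injury, 100 = complete kill) were taken 14 days after treatment relative to untreated plants. Seedlings at the first or second true leaf stage received an overhead spray at 187 L/ha, and solvent-blank sprayed plants served as controls.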

Row | Compound | pest or weed control at 70 g/ha [%]
1 | Nc1c(F)c(-c2ccc(I)nc2)nc(C(=O)O)c1Cl [Compound 81] | 85 to 94

same assay, conditions: Abutilon theophrasti, post-emergence, 336 h, ABUTH: velvetleaf (Abutilon theophrasti), application rate 140 (kg ai/ha; footnote: g ai/ha), read-out: Visual Growth Reduction (%) 14 Days After Application ABUTH

Row | Compound | pest or weed control at 140 g/ha [%]
2 | Nc1c(F)c(-c2ccc(I)nc2)nc(C(=O)O)c1Cl [Compound 81] | 85 to 94

same assay, conditions: Amaranthus retroflexus, post-emergence, 336 h, AMARE: redroot pigweed (Amaranthus retroflexus), application rate 70 (kg ai/ha; footnote: g ai/ha), read-out: Visual Growth Reduction (%) 14 Days After Application AMARE

Row | Compound | pest or weed control at 70 g/ha [%]
3 | Nc1c(F)c(-c2ccc(I)nc2)nc(C(=O)O)c1Cl [Compound 81] | 95 to 100

same assay, conditions: Amaranthus retroflexus, post-emergence, 336 h, AMARE: redroot pigweed (Amaranthus retroflexus), application rate 140 (kg ai/ha; footnote: g ai/ha), read-out: Visual Growth Reduction (%) 14 Days After Application AMARE

Row | Compound | pest or weed control at 140 g/ha [%]
4 | Nc1c(F)c(-c2ccc(I)nc2)nc(C(=O)O)c1Cl [Compound 81] | 95 to 100

same assay, conditions: Brassica napus, post-emergence, 336 h, BRSSS: oilseed rape, canola (Brassica napus), application rate 70 (kg ai/ha; footnote: g ai/ha), read-out: Visual Growth Reduction (%) 14 Days After Application BRSSS

Row | Compound | pest or weed control at 70 g/ha [%]
5 | Nc1c(F)c(-c2ccc(I)nc2)nc(C(=O)O)c1Cl [Compound 81] | 85 to 94

same assay, conditions: Brassica napus, post-emergence, 336 h, BRSSS: oilseed rape, canola (Brassica napus), application rate 140 (kg ai/ha; footnote: g ai/ha), read-out: Visual Growth Reduction (%) 14 Days After Application BRSSS

Row | Compound | pest or weed control at 140 g/ha [%]
6 | Nc1c(F)c(-c2ccc(I)nc2)nc(C(=O)O)c1Cl [Compound 81] | 85 to 94

same assay, conditions: Chenopodium album, post-emergence, 336 h, CHEAL: lambsquarters (Chenopodium album), application rate 70 (kg ai/ha; footnote: g ai/ha), read-out: Visual Growth Reduction (%) 14 Days After Application CHEAL

Row | Compound | pest or weed control at 70 g/ha [%]
7 | Nc1c(F)c(-c2ccc(I)nc2)nc(C(=O)O)c1Cl [Compound 81] | 95 to 100

same assay, conditions: Chenopodium album, post-emergence, 336 h, CHEAL: lambsquarters (Chenopodium album), application rate 140 (kg ai/ha; footnote: g ai/ha), read-out: Visual Growth Reduction (%) 14 Days After Application CHEAL

Row | Compound | pest or weed control at 140 g/ha [%]
8 | Nc1c(F)c(-c2ccc(I)nc2)nc(C(=O)O)c1Cl [Compound 81] | 95 to 100

same assay, conditions: Euphorbia heterophylla, post-emergence, 336 h, EPHHL: wild poinsettia (Euphorbia heterophylla), application rate 70 (kg ai/ha; footnote: g ai/ha), read-out: Visual Growth Reduction (%) 14 Days After Application EPHHL

Row | Compound | pest or weed control at 70 g/ha [%]
9 | Nc1c(F)c(-c2ccc(I)nc2)nc(C(=O)O)c1Cl [Compound 81] | 95 to 100

same assay, conditions: Euphorbia heterophylla, post-emergence, 336 h, EPHHL: wild poinsettia (Euphorbia heterophylla), application rate 140 (kg ai/ha; footnote: g ai/ha), read-out: Visual Growth Reduction (%) 14 Days After Application EPHHL

Row | Compound | pest or weed control at 140 g/ha [%]
10 | Nc1c(F)c(-c2ccc(I)nc2)nc(C(=O)O)c1Cl [Compound 81] | 95 to 100

same assay, conditions: Helianthus annuus, post-emergence, 336 h, HELAN: sunflower (Helianthus annuus), application rate 70 (kg ai/ha; footnote: g ai/ha), read-out: Visual Growth Reduction (%) 14 Days After Application HELAN

Row | Compound | pest or weed control at 70 g/ha [%]
11 | Nc1c(F)c(-c2ccc(I)nc2)nc(C(=O)O)c1Cl [Compound 81] | 75 to 84

same assay, conditions: Helianthus annuus, post-emergence, 336 h, HELAN: sunflower (Helianthus annuus), application rate 140 (kg ai/ha; footnote: g ai/ha), read-out: Visual Growth Reduction (%) 14 Days After Application HELAN

Row | Compound | pest or weed control at 140 g/ha [%]
12 | Nc1c(F)c(-c2ccc(I)nc2)nc(C(=O)O)c1Cl [Compound 81] | 85 to 94

same assay, conditions: Viola tricolor, post-emergence, 336 h, VIOTR: wild pansy (Viola tricolor), application rate 70 (kg ai/ha; footnote: g ai/ha), read-out: Visual Growth Reduction (%) 14 Days After Application VIOTR

Row | Compound | pest or weed control at 70 g/ha [%]
13 | Nc1c(F)c(-c2ccc(I)nc2)nc(C(=O)O)c1Cl [Compound 81] | 95 to 100

same assay, conditions: Viola tricolor, post-emergence, 336 h, VIOTR: wild pansy (Viola tricolor), application rate 140 (kg ai/ha; footnote: g ai/ha), read-out: Visual Growth Reduction (%) 14 Days After Application VIOTR

Row | Compound | pest or weed control at 140 g/ha [%]
14 | Nc1c(F)c(-c2ccc(I)nc2)nc(C(=O)O)c1Cl [Compound 81] | 95 to 100

system: Key Grass and Sedge Weeds as well as Grass Crops; assay: Post-Emergent Test II (Table 6); type: in vivo; conditions: post-emergence, 336 h, CYPSS, 70 g ai/ha, 14 days after application, read-out: Visual Growth Reduction (%) 14 Days After Application CYPSS
Method in brief: as §1

Row | Compound | pest or weed control at 70 g/ha [%]
15 | Nc1c(F)c(-c2ccc(I)nc2)nc(C(=O)O)c1Cl [Compound 81] | 95 to 100

same assay, conditions: post-emergence, 336 h, CYPSS, 140 g ai/ha, 14 days after application, read-out: Visual Growth Reduction (%) 14 Days After Application CYPSS

Row | Compound | pest or weed control at 140 g/ha [%]
16 | Nc1c(F)c(-c2ccc(I)nc2)nc(C(=O)O)c1Cl [Compound 81] | 95 to 100

same assay, conditions: post-emergence, 336 h, DIGSA: crabgrass (Digitaria sanguinalis), 70 g ai/ha, 14 days after application, read-out: Visual Growth Reduction (%) 14 Days After Application DIGSA

Row | Compound | pest or weed control at 70 g/ha [%]
17 | Nc1c(F)c(-c2ccc(I)nc2)nc(C(=O)O)c1Cl [Compound 81] | 75 to 84

same assay, conditions: post-emergence, 336 h, DIGSA: crabgrass (Digitaria sanguinalis), 140 g ai/ha, 14 days after application, read-out: Visual Growth Reduction (%) 14 Days After Application DIGSA

Row | Compound | pest or weed control at 140 g/ha [%]
18 | Nc1c(F)c(-c2ccc(I)nc2)nc(C(=O)O)c1Cl [Compound 81] | 75 to 84

same assay, conditions: post-emergence, 336 h, ECHSS, 70 g ai/ha, 14 days after application, read-out: Visual Growth Reduction (%) 14 Days After Application ECHSS

Row | Compound | pest or weed control at 70 g/ha [%]
19 | Nc1c(F)c(-c2ccc(I)nc2)nc(C(=O)O)c1Cl [Compound 81] | 85 to 94

same assay, conditions: post-emergence, 336 h, ECHSS, 140 g ai/ha, 14 days after application, read-out: Visual Growth Reduction (%) 14 Days After Application ECHSS

Row | Compound | pest or weed control at 140 g/ha [%]
20 | Nc1c(F)c(-c2ccc(I)nc2)nc(C(=O)O)c1Cl [Compound 81] | 85 to 94

same assay, conditions: post-emergence, 336 h, ORYSS (crop), 70 g ai/ha, 14 days after application, read-out: Visual Growth Reduction (%) 14 Days After Application ORYSS

Row | Compound | pest or weed control at 70 g/ha [%]
21 | Nc1c(F)c(-c2ccc(I)nc2)nc(C(=O)O)c1Cl [Compound 81] | 45 to 59

same assay, conditions: post-emergence, 336 h, ORYSS (crop), 140 g ai/ha, 14 days after application, read-out: Visual Growth Reduction (%) 14 Days After Application ORYSS

Row | Compound | pest or weed control at 140 g/ha [%]
22 | Nc1c(F)c(-c2ccc(I)nc2)nc(C(=O)O)c1Cl [Compound 81] | 60 to 74

same assay, conditions: post-emergence, 336 h, SETFA: giant foxtail (Setaria faberi), 70 g ai/ha, 14 days after application, read-out: Visual Growth Reduction (%) 14 Days After Application SETFA

Row | Compound | pest or weed control at 70 g/ha [%]
23 | Nc1c(F)c(-c2ccc(I)nc2)nc(C(=O)O)c1Cl [Compound 81] | 75 to 84

same assay, conditions: post-emergence, 336 h, SETFA: giant foxtail (Setaria faberi), 140 g ai/ha, 14 days after application, read-out: Visual Growth Reduction (%) 14 Days After Application SETFA

Row | Compound | pest or weed control at 140 g/ha [%]
24 | Nc1c(F)c(-c2ccc(I)nc2)nc(C(=O)O)c1Cl [Compound 81] | 85 to 94

same assay, conditions: post-emergence, 336 h, SORVU: grain sorghum (Sorghum vulgare), 70 g ai/ha, 14 days after application, read-out: Visual Growth Reduction (%) 14 Days After Application SORVU

Row | Compound | pest or weed control at 70 g/ha [%]
25 | Nc1c(F)c(-c2ccc(I)nc2)nc(C(=O)O)c1Cl [Compound 81] | 45 to 59

same assay, conditions: post-emergence, 336 h, SORVU: grain sorghum (Sorghum vulgare), 140 g ai/ha, 14 days after application, read-out: Visual Growth Reduction (%) 14 Days After Application SORVU

Row | Compound | pest or weed control at 140 g/ha [%]
26 | Nc1c(F)c(-c2ccc(I)nc2)nc(C(=O)O)c1Cl [Compound 81] | 45 to 59

same assay, conditions: post-emergence, 336 h, TRZSS (crop), 70 g ai/ha, 14 days after application, read-out: Visual Growth Reduction (%) 14 Days After Application TRZSS

Row | Compound | pest or weed control at 70 g/ha [%]
27 | Nc1c(F)c(-c2ccc(I)nc2)nc(C(=O)O)c1Cl [Compound 81] | 60 to 74

same assay, conditions: post-emergence, 336 h, TRZSS (crop), 140 g ai/ha, 14 days after application, read-out: Visual Growth Reduction (%) 14 Days After Application TRZSS

Row | Compound | pest or weed control at 140 g/ha [%]
28 | Nc1c(F)c(-c2ccc(I)nc2)nc(C(=O)O)c1Cl [Compound 81] | 60 to 74

same assay, conditions: post-emergence, 336 h, ZEAMX: maize, corn (Zea mays), 70 g ai/ha, 14 days after application, read-out: Visual Growth Reduction (%) 14 Days After Application ZEAMX

Row | Compound | pest or weed control at 70 g/ha [%]
29 | Nc1c(F)c(-c2ccc(I)nc2)nc(C(=O)O)c1Cl [Compound 81] | 30 to 44

same assay, conditions: post-emergence, 336 h, ZEAMX: maize, corn (Zea mays), 140 g ai/ha, 14 days after application, read-out: Visual Growth Reduction (%) 14 Days After Application ZEAMX

Row | Compound | pest or weed control at 140 g/ha [%]
30 | Nc1c(F)c(-c2ccc(I)nc2)nc(C(=O)O)c1Cl [Compound 81] | 45 to 59
